Test results taken from US10450549B2, “Aryloxyphenoxypropionate tolerance in turfrgass species and use of AAD1 as a selectable marker” (Dow AgroSciences, LLC, priority 2004, dated 2019).

Key:
AAD1 (v1) = biological target: T1, AAD1 (v1) (Sphingobium herbicidovorans, UniProt Q8KSC8); test: Colorimetric phenol detection assay of AAD1 (v1) activity (purified enzyme or E. coli extract); assay type: biochemical; details: for A510, AAD1 (10x): 10 μg purified AAD1 (v1) per 0.16 ml assay
T1 construct: made in house; host or cells: E. coli BL-21 Star (DE3), plasmid pDAB3203

AAD2 (v1) = AAD2 (v1) (Bradyrhizobium diazoefficiens, UniProt Q89UC4); test: Colorimetric phenol assay of AAD2 (v1) E. coli extract / partially purified enzyme; assay type: biochemical, Bradyrhizobium japonicum; details: for A510 AAD2: substrate 0.5 mM, 15 min, 25 mM MOPS pH 6.8, 3 μl AAD2 extract (42 μg protein)
wt ARBTH = test: In vitro plate test of herbicide cross resistance: wild-type Arabidopsis; assay type: in vivo, Arabidopsis thaliana; details: 7 days
Method: (§1) The ability of AAD1 (v3) to provide resistance to other aryloxyphenoxyalkanoate herbicides in transgenic Arabidopsis was determined using a modified in vitro plate assay. Seeds from wild-type Arabidopsis thaliana as well as Arabidopsis thaliana containing the plant optimized AAD1 (v3) gene (T4 homozygous plants id=PAAD1.315.064) were sterilized by agitating for 10 min in a 50% bleach solution. These seeds were then rinsed four times with sterile water to remove the bleach.
(§2) Dose response assays utilized a nutrient media (see below) supplemented with various rates of test compounds. The test compounds were added to the heated media (55° C.) as concentrated solutions in DMSO. Control wells had the appropriate amount of DMSO without any additional compound. The final concentration of DMSO never exceeded 1% (v/v). After thorough mixing, a 6 mL aliquot of the warm media containing the appropriate concentration of compound was added to each well of a 6-well, flat bottom, polystyrene tissue culture tray (Falcon 353046, Becton Dickson and Company, Franklin Lakes, N.J.). After the media solidified, approximately 20 to 30 Arabidopsis seeds were applied on top of the solidified media and the remaining 2 mL of media was poured over the seeds. The plates were lightly agitated to disperse the seeds, covered and allowed to cool until the media had completely solidified. The plates were incubated for 7 days at 25° C. under continual fluorescent lighting (75 μE m^−2 s^−1). Nutrient Media Composition was as described in Example 2.2 and in Somerville and Orgen (1982).
(§3) Assessment of Growth Reduction. The apical portion of the Arabidopsis plants grown in the treated media was assessed visually relative to the apical portion of the plants grown in the media containing only DMSO. Values were recorded as % growth reduction. Assessments of root growth inhibition of the Arabidopsis plants grown in the treated media were achieved by carefully extracting the plants from the media and measuring the length of the root. These root lengths were then compared to the root length of the control plants to determine a % growth reduction. A minimum of five plants were assessed for each treatment. The values recorded are an average of all the plants assessed. The calculated concentration to reach 50% inhibition effect (I50) were determined for both root and shoots of wildtype and AAD1-transformed Arabidopsis. The ratios of resistant to sensitive biotypes are included in Table 19. A ratio>2 for both root and shoot measurements generally signifies significant resistance. The higher the ratio, the greater the level of resistance. […] The broad phenoxy auxin resistance is the first reported in planta.

PAAD1.315.064 ARBTH = test: In vitro plate test of herbicide cross resistance: homozygous T4 AAD1 (v3) Arabidopsis; assay type: in vivo, Arabidopsis thaliana; details: for PAAD1.315.064 ARBTH root 150 / PAAD1.315.064 T3 ARBTH shoot 150: 7 days
Method: as §1, §2, §3

[1] = system: T4 Arabidopsis homozygous for AAD1 (v3) (line AAD1.01.315.076); test: Foliar-applied auxinic herbicides on homozygous T4 AAD1 (v3) Arabidopsis, % injury 14 DAT; assay type: in vivo, Arabidopsis thaliana; details: AAD1.01.315.076.T4 homozygous AAD1 plants
Method: (§4) The ability of AAD1 (v3) to provide resistance to other aryloxyphenoxyalkanoate auxin herbicides in transgenic Arabidopsis was determined by foliar application of various substrates described in Example 6.8. T4 generation Arabidopsis seed, homozygous for AAD1 (v3) (line AAD1.01.315.076) was stratified, and sown into selection trays much like that of Arabidopsis (Example 6.4). A transformed-control line containing PAT and the insect resistance gene Cry1F was planted in a similar manner. Seedlings were transferred to individual 3-inch pots in the greenhouse. All plants were sprayed with the use of a track sprayer set at 187 L/ha. […] All applications were formulated in 200 mM Hepes buffer (pH 7.5). Each treatment was replicated 3-4 times. Plants were evaluated at 3 and 14 days after treatment and are averaged over two experiments.

[2] = system: transformed-control line containing PAT and Cry1F; test: Foliar-applied auxinic herbicides on control (PAT/Cry1F, wildtype) Arabidopsis, % injury 14 DAT; assay type: in vivo, Arabidopsis thaliana; details: PatCry1f - Control
Method: as §4

[3] = Table 4, substrate 1 mM, 1 μg purified AAD1 (v1) per 0.16 ml assay
[4] = substrate 0.5 mM, 15 min, 25 mM MOPS pH 6.8, 4 μl AAD1 (32 μg protein) extract
[5] = resistant to sensitive biotype, >2 signifies resistance

CC(Oc1ccc(Oc2ccc(C#N)cc2F)cc1)C(=O)O (racemic) [(R,S)- cyhalofop]
A510, AAD1 (AAD1 (v1); [3]): 0.215
A510, AAD1 (10x) (AAD1 (v1); Table 4, substrate 1 mM): 1.815
A510, AAD1 (AAD1 (v1); [4]): 0.12
A510 AAD2 (AAD2 (v1)): 0.1

Cc1cc(Cl)ccc1OC(C)C(=O)O (racemic) [(R,S)-mecoprop]
activity of AAD1 (v1) E. coli extract on substrate (AAD1 (v1); 0.5 mM substrate, 4 μl extract, 15 min): cleaved
A510, AAD1 (AAD1 (v1); Table 3, substrate 1 mM, 1 μg purified AAD1 (v1) per 0.16 ml assay, 15 min): 0.341
A510, AAD1 (10x) (AAD1 (v1); Table 3, substrate 1 mM, 15 min): 2.085
wt ARBTH root 150 (wt ARBTH): 0.01 ppm
wt ARBTH shoot 150 (wt ARBTH): 2 ppm
root ratio (PAAD1.315.064 ARBTH; [5]): 150
shoot ratio (PAAD1.315.064 ARBTH; [5]): 12.5
PAAD1.315.064 ARBTH root 150 (PAAD1.315.064 ARBTH): 1.5 ppm
PAAD1.315.064 T3 ARBTH shoot 150 (PAAD1.315.064 ARBTH): 25 ppm
Ave % Injury 14DAT ([1]; 12.5 g ae/ha foliar): 3%
Ave % Injury 14DAT ([1]; 25 g ae/ha foliar): 0%
Ave % Injury 14DAT ([1]; 50 g ae/ha foliar): 0%
Ave % Injury 14DAT ([1]; 100 g ae/ha foliar): 0%
Ave % Injury 14DAT ([1]; 200 g ae/ha foliar): 3%
Ave % Injury 14DAT ([1]; 400 g ae/ha foliar): 0%
Ave % Injury 14DAT ([1]; 800 g ae/ha foliar): 0%
Ave % Injury 14DAT ([1]; 1600 g ae/ha foliar): 0%
Ave % Injury 14DAT ([2]; 12.5 g ae/ha foliar): 0%
Ave % Injury 14DAT ([2]; 25 g ae/ha foliar): 2%
Ave % Injury 14DAT ([2]; 50 g ae/ha foliar): 17%
Ave % Injury 14DAT ([2]; 100 g ae/ha foliar): 33%
Ave % Injury 14DAT ([2]; 200 g ae/ha foliar): 62%
Ave % Injury 14DAT ([2]; 400 g ae/ha foliar): 78%
Ave % Injury 14DAT ([2]; 800 g ae/ha foliar): 93%
Ave % Injury 14DAT ([2]; 1600 g ae/ha foliar): 100%

CC(Oc1ccc(Oc2ncc(C(F)(F)F)cc2Cl)cc1)C(=O)O (racemic) [haloxyfop]
A510, AAD1 (AAD1 (v1); [4]): 0.1
A510 AAD2 (AAD2 (v1)): 0.3

O=C(O)COc1cc(Cl)c(Cl)cc1Cl [2,4,5-T]
wt ARBTH root 150 (wt ARBTH): <0.01 ppm
wt ARBTH shoot 150 (wt ARBTH): 1.5 ppm
shoot ratio (PAAD1.315.064 ARBTH; [5]): 6.67
PAAD1.315.064 ARBTH root 150 (PAAD1.315.064 ARBTH): <0.01 ppm
PAAD1.315.064 T3 ARBTH shoot 150 (PAAD1.315.064 ARBTH): 10 ppm
Ave % Injury 14DAT ([1]; 8.75 g ae/ha foliar): 0%
Ave % Injury 14DAT ([1]; 17.5 g ae/ha foliar): 3%
Ave % Injury 14DAT ([1]; 35 g ae/ha foliar): 0%
Ave % Injury 14DAT ([1]; 70 g ae/ha foliar): 3%
Ave % Injury 14DAT ([1]; 140 g ae/ha foliar): 0%
Ave % Injury 14DAT ([1]; 280 g ae/ha foliar): 0%
Ave % Injury 14DAT ([1]; 560 g ae/ha foliar): 17%
Ave % Injury 14DAT ([1]; 1120 g ae/ha foliar): 3%
Ave % Injury 14DAT ([2]; 8.75 g ae/ha foliar): 0%
Ave % Injury 14DAT ([2]; 17.5 g ae/ha foliar): 20%
Ave % Injury 14DAT ([2]; 35 g ae/ha foliar): 43%
Ave % Injury 14DAT ([2]; 70 g ae/ha foliar): 85%
Ave % Injury 14DAT ([2]; 140 g ae/ha foliar): 95%
Ave % Injury 14DAT ([2]; 280 g ae/ha foliar): 98%
Ave % Injury 14DAT ([2]; 560 g ae/ha foliar): 100%
Ave % Injury 14DAT ([2]; 1120 g ae/ha foliar): 100%

O=S(=O)(O)COc1ccc(Cl)cc1Cl [2,4-D sulfonate]
phenol produced by AAD1 (v1) relative to 2,4-D (AAD1 (v1); another test): ~25%
AAD2 (v1) activity on substrate (AAD2 (v1); E. coli extract): little or no detectable phenol

C[C@@H](Oc1ccc(Oc2ccc(C#N)cc2F)cc1)C(=O)O [(R)- cyhalofop]
A510, AAD1 (AAD1 (v1); [3]): 0.222
A510, AAD1 (10x) (AAD1 (v1); Table 4, substrate 1 mM): 1.989
A510, AAD1 (AAD1 (v1); [4]): 0.14
A510 AAD2 (AAD2 (v1)): 0
